The source of these data is US11952344B2, “Heterocyclic compound and use thereof” (TAKEDA PHARMACEUTICAL COMPANY LIMITED, priority 2019, dated 2024).

Each structure is given as a SMILES string.

The target of the assay is T1, Human NMDA (NR1/NR2B) Receptor (Homo sapiens, UniProt Q13224).
T1 construct: host or cells: HEK293
T1 sequence (Q13224 27-1484, other chains not shown): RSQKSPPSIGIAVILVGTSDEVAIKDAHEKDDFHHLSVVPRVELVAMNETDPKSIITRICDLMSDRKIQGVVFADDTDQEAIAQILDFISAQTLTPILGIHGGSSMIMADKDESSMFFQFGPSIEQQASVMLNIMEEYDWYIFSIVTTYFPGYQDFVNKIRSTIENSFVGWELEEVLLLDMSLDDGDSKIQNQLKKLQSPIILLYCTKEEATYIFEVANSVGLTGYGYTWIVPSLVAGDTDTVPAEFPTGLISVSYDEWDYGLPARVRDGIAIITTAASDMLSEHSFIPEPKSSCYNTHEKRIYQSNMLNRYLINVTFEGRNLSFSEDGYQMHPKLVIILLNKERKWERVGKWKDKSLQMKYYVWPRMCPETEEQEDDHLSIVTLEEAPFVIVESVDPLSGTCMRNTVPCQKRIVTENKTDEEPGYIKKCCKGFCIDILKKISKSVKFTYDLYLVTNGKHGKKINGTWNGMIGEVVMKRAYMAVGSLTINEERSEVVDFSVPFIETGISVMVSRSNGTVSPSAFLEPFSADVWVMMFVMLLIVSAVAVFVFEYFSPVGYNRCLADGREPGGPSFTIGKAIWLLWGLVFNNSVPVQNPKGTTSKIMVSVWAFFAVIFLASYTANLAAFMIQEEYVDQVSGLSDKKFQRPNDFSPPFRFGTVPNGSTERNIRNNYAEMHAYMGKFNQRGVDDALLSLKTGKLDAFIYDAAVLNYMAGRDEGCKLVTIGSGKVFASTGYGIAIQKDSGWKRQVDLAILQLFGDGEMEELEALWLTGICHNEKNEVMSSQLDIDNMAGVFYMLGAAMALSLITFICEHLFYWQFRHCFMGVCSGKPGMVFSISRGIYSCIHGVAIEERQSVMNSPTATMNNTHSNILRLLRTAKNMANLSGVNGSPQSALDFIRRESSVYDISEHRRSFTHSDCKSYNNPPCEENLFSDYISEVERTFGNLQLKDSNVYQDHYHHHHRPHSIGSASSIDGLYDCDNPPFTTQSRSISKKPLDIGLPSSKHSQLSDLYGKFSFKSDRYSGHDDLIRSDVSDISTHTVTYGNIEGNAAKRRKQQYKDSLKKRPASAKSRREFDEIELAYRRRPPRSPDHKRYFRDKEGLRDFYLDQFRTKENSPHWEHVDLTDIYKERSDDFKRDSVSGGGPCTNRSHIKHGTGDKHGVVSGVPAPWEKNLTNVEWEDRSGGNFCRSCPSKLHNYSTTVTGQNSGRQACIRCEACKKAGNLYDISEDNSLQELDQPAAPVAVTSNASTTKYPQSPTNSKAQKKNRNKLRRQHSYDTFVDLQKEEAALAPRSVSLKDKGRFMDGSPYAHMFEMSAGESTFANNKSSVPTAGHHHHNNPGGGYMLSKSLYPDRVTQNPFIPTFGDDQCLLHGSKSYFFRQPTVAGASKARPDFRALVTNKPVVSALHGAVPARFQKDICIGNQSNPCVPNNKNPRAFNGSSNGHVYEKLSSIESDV
Put plainly: NR2B Ca2+ influx assay. Format: cell-based. The settings on record: 10 μM compound; HEK293 cells expressing GRIN1 and GRIN2B; glutamic acid/glycine-induced Ca2+ influx, Fluo-4 fluorescence; read-out: inhibitory rate (10 μM compound concentration). The text has this: Experimental Example 1 NR2B Ca^2+ Influx Assay
To confirm the “antagonistic action on an NMDA receptor containing the NR2B subunit” of the compound of the present invention, human embryonic kidney cell expressing the “NMDA receptor composed of four subunits including 2 sets of heterodimers of NR1 and NR2B”, specifically HEK293 cell expressing human glutamate ionotropic receptor NMDA type subunit 1 (GRIN1) and human glutamate ionotropic receptor NMDA type subunit 2B (GRIN2B), was used and the activation suppressive effect (inhibitory activity) on the receptors by the compound of the present invention was measured.
HEK293 cells that express GRIN1 and GRIN2B were purchased from ChanTest (Human NMDA (NR1/NR2B) Receptor-expressing, stable replicating cell line (HEK293) catalog No. CT6121).
As an index of the NMDA receptor activation, intracellular calcium ion (Ca^2+) influx caused by the binding of glycine and glutamic acid with NR1 and NR2B, respectively, was used.
HEK293 cells that express GRIN1 and GRIN2B were cultured in a cell culture flask in DMEM/F-12 (COSMO BIO, 10-092-CM) medium added with 10% FBS (fetal bovine serum, AusGene), 100 units/mL penicillin, 100 μg/mL streptomycin, 500 μg/mL neomycin, 100 μg/mL Zeocin (registered trade mark, Invitrogen), 5 μg/mL Blasticidin, in an incubator (37° C., 5% CO2).
The cells were detached from flask with trypsin the day before the assay, suspended in a seeding medium (DMEM (Invitrogen, 31053) added with 10% FBS, 100 units/mL penicillin, 100 μg/mL streptomycin) at 8×10^5 cells/mL, seeded by 25 μL/well in a 384-well plate (Falcon, 356663) at 20000 cells/well, and cultured overnight in an incubator. On the day of the assay, tetracycline (Wako Pure Chemical Industries, Ltd., 209-16561) was diluted with the seeding medium at 2 μg/mL, added at 25 μL/well to the plate seeded with the cells, and cultured for 2 hr in an incubator. Thereafter, the medium was removed, and the cells were washed with 50 μL/well assay buffer (137 mM NaCl, 4 mM KCl, 1.8 mM CaCl2, 10 mM HEPES (pH 7.2), 10 mM Glucose, 0.1% BSA). Then, a loading buffer (assay buffer added with 2.5 μM Fluo-4AM, 2 mM Amaranth, 1 mM Tartrazine) was added at 25 μL/well, and incubation was performed in the incubator for 30 min, and at room temperature for 15 min. A solution (25 μL/well) of the Example compound diluted with the above-mentioned assay buffer at 30 μM (final concentration 10 μM) was added, and the cells were stood for 15 min at room temperature. Using FDSS7000EX/μCELL (Hamamatsu Photonics K.K.), 25 μL/well of an assay buffer containing 30 μM glutamic acid, 30 μM glycine was added, and the fluorescence signal at wavelength of Excitation 480 nm, Emission 540 nm was measured every 3 seconds for 5 min. The inhibitory activity was calculated as a relative activity value (inhibitory rate) that inhibits 100% of the cumulative value of the fluorescence value of a well added with an assay buffer free of glutamic acid, glycine, relative to the cumulative value of the fluorescence value of each well.
As for `COc1cncc(CNC(=O)c2ccc(OC(F)(F)F)cc2)c1` [Example 1, N-[(5-methoxypyridin-3-yl)methyl]-4-(trifluoromethoxy)benzamide], the inhibition at 10 µM amounted to 95%. `O=C(NCc1cncc(Cl)c1)c1ccc(OC(F)(F)F)cc1` [Example 2, N-[(5-chloropyridin-3-yl)methyl]-4-(trifluoromethoxy)benzamide]: the inhibition at 10 µM amounted to 93%.

For the molecule `O=C(NCc1cncc(Br)c1)c1ccc(OC(F)(F)F)cc1` [Example 3, N-[(5-bromopyridin-3-yl)methyl]-4-(trifluoromethoxy)benzamide], the inhibition at 10 µM stood at 95%. Then `Cc1ccncc1CNC(=O)c1ccc(OC(F)(F)F)cc1` [Example 4, N-[(4-methylpyridin-3-yl)methyl]-4-(trifluoromethoxy)benzamide], with 96%. For `COc1ccncc1CNC(=O)c1cnc(OC(F)F)c(F)c1` [Example 5, 6-(difluoromethoxy)-5-fluoro-N-[(4-methoxypyridin-3-yl)methyl]pyridine-3-carboxamide] the value was 94%; for `COc1c(F)cncc1CNC(=O)c1cnc(OC(F)F)c(F)c1` [Example 6, 6-(difluoromethoxy)-5-fluoro-N-[(5-fluoro-4-methoxypyridin-3-yl)methyl]pyridine-3-carboxamide], 95%. Then `COc1ccncc1CNC(=O)c1ccc(OC(F)(F)F)cc1` [Example 7, N-[(4-methoxypyridin-3-yl)methyl]-4-(trifluoromethoxy)benzamide], with 91%; and `COc1ccncc1CNC(=O)c1ccc(OC(F)(F)F)c(F)c1` [Example 8, 3-fluoro-N-[(4-methoxypyridin-3-yl)methyl]-4-(trifluoromethoxy)-benzamide], with 95%; and `COc1ccncc1CNC(=O)c1ccc(C(F)(F)F)c(F)c1` [Example 9, 3-fluoro-N-[(4-methoxypyridin-3-yl)methyl]-4-(trifluoromethyl)benzamide], with 90%. As for `CCOc1ccncc1CNC(=O)c1cnc(OC(F)F)c(F)c1` [Example 10, 6-(difluoromethoxy)-N-[(4-ethoxypyridin-3-yl)methyl]-5-fluoropyridine-3-carboxamide], the inhibition at 10 µM amounted to 96%. For `CCOc1ccncc1CNC(=O)c1ccc(OC(F)F)c(F)c1` [Example 11, 4-(difluoromethoxy)-N-[(4-ethoxypyridin-3-yl)methyl]-3-fluorobenzamide] the value was 95%.

`COc1ncncc1CNC(=O)c1ccc(OC(F)F)c(F)c1` [Example 13, 4-(difluoromethoxy)-3-fluoro-N-[(4-methoxypyrimidin-5-yl)methyl]benzamide]: the inhibition at 10 µM worked out at 93%. Turning to `O=C(NCc1cnccc1OC1CC1)c1cnc(OC(F)F)c(F)c1` [Example 14, N-{[4-(cyclopropyloxy)-pyridin-3-yl]methyl}-6-(difluoromethoxy)-5-fluoropyridine-3-carboxamide], the inhibition at 10 µM came to 96%. `O=C(NCc1cnccc1C1CC1)c1cnc(OC(F)F)c(F)c1` [Example 15, N-[(4-cyclopropylpyridin-3-yl)methyl]-6-(difluoromethoxy)-5-fluoropyridine-3-carboxamide]: the inhibition at 10 µM was determined as 96%.

For the molecule `O=C(NCc1cnccc1C(F)(F)F)c1cnc(OC(F)F)c(F)c1` [Example 16, 6-(difluoromethoxy)-5-fluoro-N-{[4-(trifluoromethyl)pyridin-3-yl]methyl}pyridine-3-carboxamide], the inhibition at 10 µM was determined as 94%.

Take `COc1ccncc1CNC(=O)c1cnc(OC(F)F)c(Cl)c1` [Example 17, 5-chloro-6-(difluoromethoxy)-N-[(4-methoxypyridin-3-yl)methyl]pyridine-3-carboxamide]: the inhibition at 10 µM was 98%. For `Cc1ccncc1CNC(=O)c1cnc(OC(F)F)c(F)c1` [Example 18, 6-(difluoromethoxy)-5-fluoro-N-[(4-methylpyridin-3-yl)methyl]pyridine-3-carboxamide], the inhibition at 10 µM is 96%. For `O=C(NCc1cncnc1OC1CC1)c1cnc(OC(F)F)c(F)c1` [Example 19, N-{[4-(cyclopropyloxy)pyrimidin-5-yl]methyl}-6-(difluoromethoxy)-5-fluoropyridine-3-carboxamide] the value was 91%; for `CC(C)Oc1ncncc1CNC(=O)c1cnc(OC(F)F)c(F)c1` [Example 20, 6-(difluoromethoxy)-5-fluoro-N-({4-[(propan-2-yl)oxy]pyrimidin-5-yl}methyl)pyridine-3-carboxamide], 94%; for `COc1ncncc1CNC(=O)c1cnc(OC(F)F)c(Cl)c1` [Example 21, 5-chloro-6-(difluoromethoxy)-N-[(4-methoxypyrimidin-5-yl)methyl]pyridine-3-carboxamide], 93%. `COc1ncncc1CNC(=O)c1ccc(OC(F)(F)F)c(F)c1` [Example 22, 3-fluoro-N-[(4-methoxypyrimidin-5-yl)methyl]-4-(trifluoromethoxy)benzamide]: the inhibition at 10 µM was found to be 95%.

For `O=C(NCc1cncnc1C1CC1)c1cnc(OC(F)F)c(F)c1` [Example 23, N-[(4-cyclopropylpyrimidin-5-yl)methyl]-6-(difluoromethoxy)-5-fluoropyridine-3-carboxamide], the inhibition at 10 µM is 95%.

As for `CCOc1ncncc1CNC(=O)c1cnc(OC(F)F)c(F)c1` [Example 24, 6-(difluoromethoxy)-N-[(4-ethoxypyrimidin-5-yl)methyl]-5-fluoropyridine-3-carboxamide], the inhibition at 10 µM was determined as 95%. In the case of `COc1ncncc1CNC(=O)c1ccc(OC(F)F)cc1` [Example 25, 4-(difluoromethoxy)-N-[(4-methoxypyrimidin-5-yl)methyl]benzamide], the inhibition at 10 µM turned out to be 88%.

Consider `COc1ncncc1CNC(=O)c1ccc(OC(F)(F)F)cc1` [Example 26, N-[(4-methoxypyrimidin-5-yl)methyl]-4-(trifluoromethoxy)-benzamide], for which the inhibition at 10 µM was 93%.

Regarding `Cc1ccncc1CNC(=O)c1cnc(OC(F)F)c(Cl)c1` [Example 27, 5-chloro-6-(difluoromethoxy)-N-[(4-methylpyridin-3-yl)methyl]pyridine-3-carboxamide], the inhibition at 10 µM is 95%. In the case of `CCc1ncncc1CNC(=O)c1cnc(OC(F)F)c(F)c1` [Example 28, 6-(difluoromethoxy)-N-[(4-ethylpyrimidin-5-yl)methyl]-5-fluoropyridine-3-carboxamide], the inhibition at 10 µM came out at 87%. On to `CC(F)(F)c1ncncc1CNC(=O)c1cnc(OC(F)F)c(F)c1` [Example 29, N-{[4-(1,1-difluoroethyl)-pyrimidin-5-yl]methyl}-6-(difluoromethoxy)-5-fluoropyridine-3-carboxamide], for which the inhibition at 10 µM was 92%. On to `Cc1ncncc1CNC(=O)c1ccc(OC(F)(F)F)c(F)c1` [Example 30, 3-fluoro-N-[(4-methylpyrimidin-5-yl)methyl]-4-(trifluoromethoxy)-benzamide], for which the inhibition at 10 µM turned out to be 92%.

Consider `Cc1ncncc1CNC(=O)c1cnc(OC(F)F)c(F)c1` [Example 31, 6-(difluoromethoxy)-5-fluoro-N-[(4-methylpyrimidin-5-yl)methyl]pyridine-3-carboxamide], for which the inhibition at 10 µM turned out to be 68%. With `O=C(NCc1cncnc1OC1CC(F)(F)C1)c1cnc(OC(F)F)c(F)c1` [Example 32, N-({4-[(3,3-difluorocyclobutyl)-oxy]pyrimidin-5-yl}methyl)-6-(difluoromethoxy)-5-fluoropyridine-3-carboxamide], the inhibition at 10 µM is 96%. Take `COc1ncncc1CNC(=O)c1cnc(OC(F)(F)F)c(F)c1` [Example 33, 5-fluoro-N-[(4-methoxypyrimidin-5-yl)methyl]-6-(trifluoromethoxy)pyridine-3-carboxamide]: the inhibition at 10 µM came to 94%.
